Source: paper PMC9696794, “Synthesis and Antimicrobial Activity of Short Analogues of the Marine Antimicrobial Peptide Turgencin A: Effects of SAR Optimizations, Cys-Cys Cyclization and Lipopeptide Modifications” (International Journal of Molecular Sciences, 2022)
Values after ≈ are worked out from the molar mass of the structure shown. Where a SMILES comes first, the peptide text is derived from it. Bridges are numbered along the chain shown (N, C = ends).

Legend:
[1] = system: fungi (A. pullulans, C. albicans, Rhodotorula sp.); assay: Antifungal MIC assay, all fungi together (range or geometric mean); assay type: cell-based; details: Table S3; MIC >128 set to 128
Method in brief: (§1)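 Overnight cultures in potato dextrose broth with 2% glucose at 25–30 °C were diluted to approx. 4 × 10^5 spores/mL and mixed 1:1 with two-fold peptide dilutions plated at 256 to 1 µg/mL. After 48 h at room temperature, OD600 was read. MIC was the lowest concentration giving OD below 10% of the growth control, in triplicate.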

[2] = system: Gram-positive bacterial strains; details: Table S3; MIC >256 set to 256
Method in brief: (§2)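 Cultures grown in Mueller–Hinton broth were adjusted by OD600 to 2.5–3 × 10^4 CFU/mL and mixed with two-fold peptide dilutions from 256 to 1 µg/mL. Plates were incubated at 35 °C with OD595 monitored every hour for 24 h.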

[3] = system: C. albicans (Ca, ATCC 10231); assay: microbe, parasite or virus in culture; assay type: cell-based, Candida albicans; details: ATCC 10231, 48 h
Method in brief: as §1

[4] = system: Gram-negative bacterial strains (E. coli and P. aeruginosa); assay: Antibacterial MIC assay, Gram-negative strains together (range or geometric mean); assay type: cell-based; details: Table S3; MIC >256 set to 256
Method in brief: as §2

[5] = system: human red blood cells (RBC); assay: Haemolytic activity assay; assay type: cell-based; details: for Selectivity index (SI) G- / Selectivity index (SI) G+ / Selectivity index (SI) Fungi: Table S3, highest tested concentration used where EC50 above it; for Selectivity index (SI) G-: EC50/GM of Gram-negative strains; for Selectivity index (SI) G+: EC50/GM of Gram-positive strains; for Selectivity index (SI) Fungi: EC50/GM of fungi; for SI (selectivity index = EC50/GM): haemolytic EC50 over GM of MIC against all bacterial strains, Table 1; for RBC Tox. (EC50), haemolytic activity: human RBC, 1 h, 37 °C, concentration giving 50% haemolysis
Method in brief: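 Washed human erythrocytes (1% hematocrit final) incubated 1 h at 37 °C with agitation with lipopeptides at 500–3.9 μM in PBS (≤1% DMSO), duplicates. Haemoglobin release read at 545 nm relative to 0.1% Triton X-100; EC50 is 50% haemolysis, averaged from three experiments.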

[6] = system: E. coli (Ec, ATCC 25922); assay: microbe, parasite or virus in culture; assay type: cell-based, Escherichia coli; details: ATCC 25922, 24 h
Method in brief: as §2

[7] = system: S. epidermidis RP62A (Se, ATCC 35984); assay: microbe, parasite or virus in culture; assay type: cell-based, Staphylococcus epidermidis; details: ATCC 35984, 24 h
Method in brief: as §2

[8] = system: S. aureus (Sa, ATCC 9144); assay: microbe, parasite or virus in culture; assay type: cell-based, Staphylococcus aureus; details: ATCC 9144, 24 h
Method in brief: as §2

[9] = system: all bacterial strains; assay: Antibacterial MIC assay, all bacterial strains together (range or geometric mean); assay type: cell-based; details: for GM (geometric mean of the MIC values against all bacterial strains): Table 1, six bacterial strains; for GM of MIC Tot. bact.: Table S3, all bacterial test strains, MIC >256 set to 256
Method in brief: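 Broth microdilution in Mueller–Hinton broth against B. subtilis, C. glutamicum, S. aureus, S. epidermidis RP62A, E. coli and P. aeruginosa; inoculum 2.5–3 × 10^4 CFU/mL, 35 °C, OD595 read hourly for 24 h. MIC: lowest peptide concentration giving OD below 10% of growth control; geometric mean across strains, triplicate.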

[10] = system: C. glutamicum (Cg, ATCC 13032); assay: microbe, parasite or virus in culture; assay type: cell-based, Corynebacterium glutamicum; details: ATCC 13032, 24 h
Method in brief: as §2

[11] = system: B. subtilis (Bs, ATCC 23857); assay: microbe, parasite or virus in culture; assay type: cell-based, Bacillus subtilis; details: ATCC 23857, 24 h
Method in brief: as §2

[12] = system: P. aeruginosa (Pa, ATCC 27853); assay: microbe, parasite or virus in culture; assay type: cell-based, Pseudomonas aeruginosa; details: ATCC 27853, 24 h
Method in brief: as §2

[13] = system: Rhodotorula sp. (Rh); assay: microbe, parasite or virus in culture; assay type: cell-based; details: 48 h
Method in brief: as §1

[14] = system: A. pullulans (Ap); assay: microbe, parasite or virus in culture; assay type: cell-based, Aurobasidium pollulans; details: 48 h
Method in brief: as §1

[15] = system: E. coli MC4100 (wild type, WT); assay: microbe, parasite or virus in culture; details: wild type
Method in brief: (§3)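 Broth microdilution in Mueller–Hinton medium, 2.5–3 × 10^4 CFU/mL inoculum, two-fold peptide dilutions from 256 to 1 µg/mL, 35 °C with OD595 read hourly for 24 h. MIC is the lowest concentration giving OD below 10% of the untreated growth control; run in triplicate.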

[16] = system: E. coli NR698 (outer membrane permeable mutant, imp4213); assay: microbe, parasite or virus in culture; details: MC4100 NR698 imp4213, deficient outer membrane
Method in brief: as §3

CC(C)C[C@H](NC(=O)[C@H](CCCCN)NC(=O)[C@@H]1CSSC[C@H](N)C(=O)NCC(=O)N[C@@H](CCCCN)C(=O)N[C@@H](CCCCN)C(=O)N[C@@H](Cc2c[nH]c3ccccc23)C(=O)NCC(=O)N[C@@H](Cc2c[nH]c3ccccc23)C(=O)N[C@@H](Cc2c[nH]c3ccccc23)C(=O)N[C@@H](CCCCN)C(=O)N1)C(N)=O [cTurg-3] (H-CGKKWGWWKCKL-NH2; disulfide 1-10; N-terminus assumed)
GM of MIC Fungi [1]: 32 µg/mL | GM of MIC G+ [2]: 10 µg/mL | Antimicrobial Activity (MIC) Fungi Ca [3]: 32 µg/mL | GM of MIC G- [4]: 64 µg/mL | Selectivity index (SI) G- [5]: 13 | Selectivity index (SI) G+ [5]: 89 | Selectivity index (SI) Fungi [5]: 27 | SI (selectivity index = EC50/GM) [5]: 47 | RBC Tox. (EC50), haemolytic activity [5]: 849 µg/mL | Antimicrobial Activity (MIC) Gram − Ec [6]: 32 µg/mL | Antimicrobial Activity (MIC) Gram + Se [7]: 16 µg/mL | Antimicrobial Activity (MIC) Gram + Sa [8]: 32 µg/mL | GM (geometric mean of the MIC values against all bacterial strains) [9]: 18 µg/mL | GM of MIC Tot. bact. [9]: 18 µg/mL | Antimicrobial Activity (MIC) Gram + Cg [10]: 4 µg/mL | Antimicrobial Activity (MIC) Gram + Bs [11]: 4 µg/mL | Antimicrobial Activity (MIC) Gram − Pa [12]: 128 µg/mL | Antimicrobial Activity (MIC) Fungi Rh [13]: 32 µg/mL | Antimicrobial Activity (MIC) Fungi Ap [14]: 32 µg/mL | MIC E. coli MC4100 (WT) [15]: 16 µg/mL (≈ 10.5 µM) | MIC E. coli NR698 (mutant) [16]: 8 µg/mL (≈ 5.26 µM)

CC(C)C[C@H](NC(=O)[C@H](CCCCN)NC(=O)[C@@H]1CSSC[C@H](N)C(=O)NCC(=O)N[C@@H](CCCCN)C(=O)N[C@@H](CCCCN)C(=O)N2CCC[C@H]2C(=O)N[C@@H](Cc2c[nH]c3ccccc23)C(=O)N[C@@H](Cc2c[nH]c3ccccc23)C(=O)N[C@@H](Cc2c[nH]c3ccccc23)C(=O)N[C@@H](CCCCN)C(=O)N1)C(N)=O [cTurg-4] (H-CGKKPWWWKCKL-NH2; disulfide 1-10; N-terminus assumed)
GM of MIC Fungi [1]: 40 µg/mL | GM of MIC G+ [2]: 16 µg/mL | Antimicrobial Activity (MIC) Fungi Ca [3]: 64 µg/mL | GM of MIC G- [4]: 128 µg/mL | Selectivity index (SI) G- [5]: > 8 | Selectivity index (SI) G+ [5]: > 67 | Selectivity index (SI) Fungi [5]: > 26 | SI (selectivity index = EC50/GM) [5]: >33 | Antimicrobial Activity (MIC) Gram − Ec [6]: 64 µg/mL | Antimicrobial Activity (MIC) Gram + Se [7]: 32 µg/mL | Antimicrobial Activity (MIC) Gram + Sa [8]: 64 µg/mL | GM (geometric mean of the MIC values against all bacterial strains) [9]: 32 µg/mL | GM of MIC Tot. bact. [9]: 32 µg/mL | Antimicrobial Activity (MIC) Gram + Cg [10]: 4 µg/mL | Antimicrobial Activity (MIC) Gram + Bs [11]: 8 µg/mL | Antimicrobial Activity (MIC) Gram − Pa [12]: 256 µg/mL | Antimicrobial Activity (MIC) Fungi Rh [13]: 32 µg/mL | Antimicrobial Activity (MIC) Fungi Ap [14]: 32 µg/mL | MIC E. coli MC4100 (WT) [15]: 16 µg/mL (≈ 10.3 µM) | MIC E. coli NR698 (mutant) [16]: 8 µg/mL (≈ 5.13 µM)

CC(C)C[C@H](NC(=O)[C@H](CCCNC(=N)N)NC(=O)[C@@H]1CSSC[C@H](N)C(=O)NCC(=O)N[C@@H](CCCNC(=N)N)C(=O)N[C@@H](CCCNC(=N)N)C(=O)N[C@@H](Cc2c[nH]c3ccccc23)C(=O)N[C@@H](Cc2c[nH]c3ccccc23)C(=O)NCC(=O)N[C@@H](Cc2c[nH]c3ccccc23)C(=O)N[C@@H](CCCNC(=N)N)C(=O)N1)C(N)=O [cTurg-5] (H-CGRRWWGWRCRL-NH2; disulfide 1-10; N-terminus assumed)
GM of MIC Fungi [1]: 32 µg/mL | GM of MIC G+ [2]: 8 µg/mL | Antimicrobial Activity (MIC) Fungi Ca [3]: 32 µg/mL | GM of MIC G- [4]: 11 µg/mL | Selectivity index (SI) G- [5]: > 97 | Selectivity index (SI) G+ [5]: > 138 | Selectivity index (SI) Fungi [5]: > 34 | SI (selectivity index = EC50/GM) [5]: >123 | RBC Tox. (EC50), haemolytic activity [5]: >1101 µg/mL | Antimicrobial Activity (MIC) Gram − Ec [6]: 8 µg/mL | Antimicrobial Activity (MIC) Gram + Se [7]: 8 µg/mL | Antimicrobial Activity (MIC) Gram + Sa [8]: 16 µg/mL | GM (geometric mean of the MIC values against all bacterial strains) [9]: 9 µg/mL | GM of MIC Tot. bact. [9]: 9 µg/mL | Antimicrobial Activity (MIC) Gram + Cg [10]: 4 µg/mL | Antimicrobial Activity (MIC) Gram + Bs [11]: 8 µg/mL | Antimicrobial Activity (MIC) Gram − Pa [12]: 16 µg/mL | Antimicrobial Activity (MIC) Fungi Rh [13]: 32 µg/mL | Antimicrobial Activity (MIC) Fungi Ap [14]: 32 µg/mL | MIC E. coli MC4100 (WT) [15]: 8 µg/mL (≈ 4.9 µM) | MIC E. coli NR698 (mutant) [16]: 8 µg/mL (≈ 4.9 µM)
